According to patent publication EP1246824B1, “CARBOXAMIDE DIAZEPIN DERIVATIVES, PREPARATION METHOD, USE AS MEDICINES, PHARMACEUTICAL COMPOSITIONS AND USE THEREOF” (Aventis Pharma S.A., priority 1999, dated 2001):
Read-outs that look alike come from different tables or passages of the source. Each block holds one molecule with its values, some of them ahead of it.

Assays:
Format in all cases: biochemical
[1] = target: T1, Papain (Carica papaya, UniProt P00784); assay: Inhibition of Papain (protocol as for Cathepsine K)
T1 construct: purchased Sigma
T1 sequence (P00784 134-345): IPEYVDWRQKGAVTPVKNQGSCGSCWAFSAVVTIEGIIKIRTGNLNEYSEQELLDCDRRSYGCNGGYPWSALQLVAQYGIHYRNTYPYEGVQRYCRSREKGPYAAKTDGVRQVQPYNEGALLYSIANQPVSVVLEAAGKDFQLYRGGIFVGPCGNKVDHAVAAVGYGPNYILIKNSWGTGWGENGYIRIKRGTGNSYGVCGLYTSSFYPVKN
Protocol: (§1) Les produits à tester (10 mM) sont dilués à 1 mM en DMSO et repartis dans des plaques 96 puits polystyrène Nunc à raison de 2 µl par puits. La colonne 12 de la plaque est réservée pour les contrôles et reçoit donc […] de DMSO (sans produits) par puits. Les plaques sont conservées à -80°C et décongelées le jour de l'expérience.
(§2) Les produits sont dilués à 50 µM par addition de 38 µl de tampon réaction : acétate de sodium 100 mM, EDTA 5 mM, DTT 1 mM pH 5,5. L'addition ainsi que tous les pipetages suivant sont réalisés par un pipeteur 96 cônes CybiWell. Après mélange des solutions, chaque produit est transféré dans 2 puits (duplicates) d'une plaque 384 puits noire Greiner à raison de 10 µl par puits. On peut donc tester 2 plaques 96 dans une plaque 384.
(§3) Une solution de substrat à 50 µM, Z-Val-arg-AMC (Calbiochem), est préparée dans le tampon réaction . Le substrat, est ensuite distribué dans tous les puits de la plaque 384 (20 µl par puits).
(§4) Une solution de Cathepsine K à 12,5 ng/ml est préparée dans le tampon réaction et distribuée dans tous les puits de la plaque 384 (20 µl par puits) exceptés les 16 puits servant de contrôles 100 % d'inhibition (colonne 23 et 24, lignes I à P) qui recevront 20 µl de tampon sans enzyme. Les contrôles […] d'inhibition sont réalisés dans les colonnes 23 et 24, lignes A à H qui ne contiennent pas de produits.
(§5) Les plaques sont ensuite incubées 2H à température ambiante, puis lues sur Fluoroskan (Labsystems) : excitation 390 nm; émission 460 nm
(§6) Les concentrations finales de chacun des réactifs sont : Produits 10 µM, Substrat 20 µM, enzyme 5 ng/ml.
(§7) Les % d'inhibition pour chacun des produits sont calculés en utilisant les points à 0 et 100 % d'inhibition de chaque plaque comme références. Les produits présentant une inhibition significative sont ensuite retestés sur une gamme de concentration allant de 50 à 0,5µM pour déterminer une IC50.
Etude de l'inhibition de Papain:
Protocole identique à celui de Cathepsine K exceptés : • Papain (Sigma), solution à 50 ng/ml, concentration finale 20 ng/ml • Incubation 30 min à température ambiante

[2] = target: T2, Cathepsine K (Homo sapiens, UniProt P43235); assay: Inhibition of Cathepsine K (fluorogenic substrate Z-Val-arg-AMC); conditions: substrate Z-Val-arg-AMC 20 µM, enzyme 5 ng/ml, pH 5.5, 2 h at room temperature; concentration range 50 to 0.5 µM; read-out: IC50 µM Cathepsin K
T2 sequence (P43235 115-329): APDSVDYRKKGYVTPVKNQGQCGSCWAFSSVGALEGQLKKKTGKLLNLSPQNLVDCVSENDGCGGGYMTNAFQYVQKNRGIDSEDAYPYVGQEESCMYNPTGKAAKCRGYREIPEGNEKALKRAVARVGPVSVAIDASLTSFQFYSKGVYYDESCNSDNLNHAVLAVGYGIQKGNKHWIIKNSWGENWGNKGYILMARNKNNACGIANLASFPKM
Protocol: Etude de l'inhibition de Cathepsine K :
as §1, §2, §3, §4, §5, §6, §7

[3] = target: T3, Cathepsine B (Homo sapiens, UniProt P07858); assay: Inhibition of Cathepsine B (fluorogenic substrate Z-arg-arg-AMC); conditions: substrate Z-arg-arg-AMC 20 µM, enzyme 16 ng/ml, 1 h at room temperature; read-out: IC50 µM Cathepsin B
T3 construct: purchased Calbiochem
Protocol: as §1, §2, §3, §4, §5, §6, §7
Etude de l'inhibition de Cathepsine B: […]

Molecule: COC(=O)CCCC(=O)OCC(=O)[C@H](Cc1ccccc1)NC(=O)[C@@H]1CCCN2C(=O)CC[C@H](NC(=O)Nc3ccc(Oc4ccccc4)cc3)C(=O)N12 [Exemple 217]
IC50 ([1]; read-out: IC50 µM Papain, enzyme 20 ng/ml, 30 min at room temperature): 7 µM

Molecule: C=CCOC(=O)CC[C@H](NC(=O)[C@@H]1CCCN2C(=O)CC[C@H](NS(C)(=O)=O)C(=O)N12)C(=O)COC(=O)c1c(Cl)cccc1Cl [Exemple 150, (4S) 6-[(2,6-dichlorobenzoyl)oxy]-4-[[[(1S,9S)-9-[(methylsulfonyl)amino]-octahydro-6,10-dioxo-6H-pyridazino[1,2-a] [1,2]diazepine-1-yl]carbonyl]amino]-5-oxo-Hexanoatede (2-propenyle)]
IC50 [2]: 6 µM
IC50 [3]: 0.6 µM

Molecule: C=CCOC(=O)CC[C@H](NC(=O)[C@@H]1CCCN2C(=O)CC[C@H](NC(=O)NCCc3cccs3)C(=O)N12)C(=O)CSc1nnnn1-c1ccccc1 [Exemple 138, (4S) 6-[(1-phenyl-1H-tetrazol-5-yl)thio]-4-[[[(1S,9S)-9-[[[[2-(thien-2-yl)-ethyl]amino]carbonyl]amino]-octahydro-6,10-dioxo-6H-pyridazino[1,2-a][1,2]diazepine-1-yl]carbonyl]amino]-5-oxo-Hexanoatede (2-propenyle)]
IC50 ([1]; enzyme 20 ng/ml, 30 min at room temperature, read-out: IC50 µM Papain): 8 µM

IC50 [2]: 12 µM
Molecule: CC(C)C[C@H](NC(=O)[C@@H]1CCCN2C(=O)CC[C@H](NS(=O)(=O)c3ccc(C(F)(F)F)cc3)C(=O)N12)C(=O)C=[N+]=[N-] [Exemple 347, 9-[(9S)-[[4-(trifluoromethyl)phenyl]sulfonyl]amino]-N-((3S)-1-diazo-5-methyl-2-oxo-3-hexyl)-octahydro-6,10-dioxo-6H-(1S)-pyridazino[1,2-a][1,2]diazepine-1-carboxamide]

IC50 [2]: 2 µM
Molecule: (4S) 6-diazo-4-[[[(1S,9S)-9-[[[[2-(p-2-yl)-ethyl]amino]carbonyl]amino]-octahydro-6,10-dioxo-6H-pyridazino[1,2-a][1,2]diazepine-1-yl]carbonyl]amino]-5-oxo-Hexanoate de (2-propenyle) [Exemple 44]

Molecule: C=CCOC(=O)CC[C@H](NC(=O)[C@@H]1CCCN2C(=O)CC[C@H](NC(=O)NCCc3cccs3)C(=O)N12)C(=O)COC(=O)c1c(Cl)cccc1Cl [Exemple 141, (4S) 6-[(2,6-dichlorobenzoyl)oxy]-4-[[[(1S,9S)-9-[[[[2-(thien-2-yl)-ethyl]amino]carbonyl]amino]-octahydro-6,10-dioxo-6H-pyridazino[1,2-a][1,2]diazepine-1-yl]carbonyl]amino]-5-oxo-Hexanoatede (2-propenyle)]
IC50 [2]: 9 µM
IC50 [3]: 0.7 µM

Molecule: C=CCOC(=O)CC[C@H](NC(=O)[C@@H]1CCCN2C(=O)CC[C@H](NC(=O)NC3CCCCC3)C(=O)N12)C(=O)COC(=O)c1c(Cl)cccc1Cl [Exemple 122, (4S) 6-[(2,6-dichlorobenzoyl)oxy] -4-[[[(1S,9S)-9-[[(cyclohexylamino)carbonyl]amino]-octahydro-6,10-dioxo-6H-pyridazino[1,2-a][1,2]diazepine-1-yl]carbonyl]amino]-5-oxo-Hexanoatede (2-propenyle)]
IC50 [2]: 18 µM
IC50 [3]: 0.7 µM

Molecule: CC(C)(C)Oc1ccc(C[C@H](NC(=O)[C@@H]2CCCN3C(=O)CC[C@H](NC(=O)Nc4ccc(Oc5ccccc5)cc4)C(=O)N23)C(=O)C=[N+]=[N-])cc1 [Exemple 54, 9-[(9S)-[[(4-phenoxyphenyl)amino]carbonyl]amino]-N-[(2S)-4-diazo-1-[4-[(1,1-dimethyl)ethoxy]phenyl]-3-oxo-2-butyl]-6H-(1S)-pyridazino[1,2-a][1,2]diazepine-1-carboxamide]
IC50 [1]: 15 µM
